Data published in patent publication US20040266623A1, “SYNERGISTIC QUINCLORAC HERBICIDAL COMPOSITIONS” (priority 2003, published 2004).

What was measured:
Experiment in all cases: Greenhouse pot test, postemergent spray, visual control rating converted to percent control
Assay type in all cases: in vivo
crabgrass = settings: for Control (1-9) Crabgrass: scale 1=no control, 9=death of plant
In short: (§1)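 Steps: grow in soilless greenhouse media; spray at 43.46 gallons/acre; hold in greenhouse; score visually at 24 h to 21 days after treatment on a 1–9 scale; convert to percent control. Colby's two- and three-way equations give expected inhibition for mixtures.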

plantain = settings: for Control (1-9) Plantain: scale 1=no control, 9=death of plant
In short: as §1

white clover = settings: for Control (1-9) Clover: scale 1=no control, 9=death of plant
In short: as §1

dandelion = settings: for Control (1-9) Dandelion: scale 1=no control, 9=death of plant
In short: as §1

Cc1nn(-c2cc(NS(C)(=O)=O)c(Cl)cc2Cl)c(=O)n1C(F)F [Sulfentrazone @ 0.02 lbs/A]
% Control Crabgrass (crabgrass; Test 3, 7 DAT): 44.4%
Control (1-9) Crabgrass (crabgrass; Test 3, 7 DAT): 4
% Control Crabgrass (crabgrass; Test 3, 14 DAT): 44.4%
Control (1-9) Crabgrass (crabgrass; Test 3, 14 DAT): 4
% Control Crabgrass (crabgrass; Test 3, 21 DAT): 33.3%
Control (1-9) Crabgrass (crabgrass; Test 3, 21 DAT): 3
% Control Crabgrass (crabgrass; Test 3, 24 HAT): 11.1%
Control (1-9) Crabgrass (crabgrass; Test 3, 24 HAT): 1
% Control Crabgrass (crabgrass; Test 3, 72 HAT): 22.2%
Control (1-9) Crabgrass (crabgrass; Test 3, 72 HAT): 2
% Control Plantain (plantain; Test 3, 7 DAT): 100.0%
Control (1-9) Plantain (plantain; Test 3, 7 DAT): 9
% Control Plantain (plantain; Test 3, 14 DAT): 100.0%
Control (1-9) Plantain (plantain; Test 3, 14 DAT): 9
% Control Plantain (plantain; Test 3, 21 DAT): 100.0%
Control (1-9) Plantain (plantain; Test 3, 21 DAT): 9
% Control Plantain (plantain; Test 3, 24 HAT): 44.4%
Control (1-9) Plantain (plantain; Test 3, 24 HAT): 4
% Control Plantain (plantain; Test 3, 72 HAT): 88.9%
Control (1-9) Plantain (plantain; Test 3, 72 HAT): 8
% Control Clover (white clover; Test 3, 7 DAT): 33.3%
Control (1-9) Clover (white clover; Test 3, 7 DAT): 3
% Control Clover (white clover; Test 3, 14 DAT): 44.4%
Control (1-9) Clover (white clover; Test 3, 14 DAT): 4
% Control Clover (white clover; Test 3, 21 DAT): 44.4%
Control (1-9) Clover (white clover; Test 3, 21 DAT): 4
% Control Clover (white clover; Test 3, 24 HAT): 33.3%
Control (1-9) Clover (white clover; Test 3, 24 HAT): 3
% Control Clover (white clover; Test 3, 72 HAT): 22.2%
Control (1-9) Clover (white clover; Test 3, 72 HAT): 2
% Control Dandelion (dandelion; Test 3, 7 DAT): 44.4%
Control (1-9) Dandelion (dandelion; Test 3, 7 DAT): 4
% Control Dandelion (dandelion; Test 3, 14 DAT): 77.8%
Control (1-9) Dandelion (dandelion; Test 3, 14 DAT): 7
% Control Dandelion (dandelion; Test 3, 21 DAT): 66.7%
Control (1-9) Dandelion (dandelion; Test 3, 21 DAT): 6
% Control Dandelion (dandelion; Test 3, 24 HAT): 33.3%
Control (1-9) Dandelion (dandelion; Test 3, 24 HAT): 3
% Control Dandelion (dandelion; Test 3, 72 HAT): 33.3%
Control (1-9) Dandelion (dandelion; Test 3, 72 HAT): 3

O=C(O)c1c(Cl)ccc2cc(Cl)cnc12 [Quinclorac @ 0.18 lbs/A]
% Control Crabgrass (crabgrass; Test 3, 7 DAT): 22.2%
Control (1-9) Crabgrass (crabgrass; Test 3, 7 DAT): 2
% Control Crabgrass (crabgrass; Test 3, 14 DAT): 33.3%
Control (1-9) Crabgrass (crabgrass; Test 3, 14 DAT): 3
% Control Crabgrass (crabgrass; Test 3, 21 DAT): 33.3%
Control (1-9) Crabgrass (crabgrass; Test 3, 21 DAT): 3
% Control Crabgrass (crabgrass; Test 3, 24 HAT): 11.1%
Control (1-9) Crabgrass (crabgrass; Test 3, 24 HAT): 1
% Control Crabgrass (crabgrass; Test 3, 72 HAT): 11.1%
Control (1-9) Crabgrass (crabgrass; Test 3, 72 HAT): 1
% Control Crabgrass (crabgrass; Test 4, 24 HAT): 11.1%
Control (1-9) Crabgrass (crabgrass; Test 4, 24 HAT): 1
% Control Crabgrass (crabgrass; Test 4, 72 HAT): 11.1%
Control (1-9) Crabgrass (crabgrass; Test 4, 72 HAT): 1
% Control Plantain (plantain; Test 3, 7 DAT): 22.2%
Control (1-9) Plantain (plantain; Test 3, 7 DAT): 2
% Control Plantain (plantain; Test 3, 14 DAT): 33.3%
Control (1-9) Plantain (plantain; Test 3, 14 DAT): 3
% Control Plantain (plantain; Test 3, 21 DAT): 33.3%
Control (1-9) Plantain (plantain; Test 3, 21 DAT): 3
% Control Plantain (plantain; Test 3, 24 HAT): 11.1%
Control (1-9) Plantain (plantain; Test 3, 24 HAT): 1
% Control Plantain (plantain; Test 3, 72 HAT): 22.2%
Control (1-9) Plantain (plantain; Test 3, 72 HAT): 2
% Control Plantain (plantain; Test 4, 24 HAT): 11.1%
Control (1-9) Plantain (plantain; Test 4, 24 HAT): 1
% Control Plantain (plantain; Test 4, 72 HAT): 22.2%
Control (1-9) Plantain (plantain; Test 4, 72 HAT): 2
% Control Clover (white clover; Test 3, 7 DAT): 44.4%
Control (1-9) Clover (white clover; Test 3, 7 DAT): 4
% Control Clover (white clover; Test 3, 14 DAT): 44.4%
Control (1-9) Clover (white clover; Test 3, 14 DAT): 4
% Control Clover (white clover; Test 3, 21 DAT): 66.7%
Control (1-9) Clover (white clover; Test 3, 21 DAT): 6
% Control Clover (white clover; Test 3, 24 HAT): 11.1%
Control (1-9) Clover (white clover; Test 3, 24 HAT): 1
% Control Clover (white clover; Test 3, 72 HAT): 22.2%
Control (1-9) Clover (white clover; Test 3, 72 HAT): 2
% Control Clover (white clover; Test 4, 24 HAT): 11.1%
Control (1-9) Clover (white clover; Test 4, 24 HAT): 1
% Control Clover (white clover; Test 4, 72 HAT): 22.2%
Control (1-9) Clover (white clover; Test 4, 72 HAT): 2
% Control Dandelion (dandelion; Test 3, 7 DAT): 22.2%
Control (1-9) Dandelion (dandelion; Test 3, 7 DAT): 2
% Control Dandelion (dandelion; Test 3, 14 DAT): 33.3%
Control (1-9) Dandelion (dandelion; Test 3, 14 DAT): 3
% Control Dandelion (dandelion; Test 3, 21 DAT): 33.3%
Control (1-9) Dandelion (dandelion; Test 3, 21 DAT): 3
% Control Dandelion (dandelion; Test 3, 24 HAT): 11.1%
Control (1-9) Dandelion (dandelion; Test 3, 24 HAT): 1
% Control Dandelion (dandelion; Test 3, 72 HAT): 22.2%
Control (1-9) Dandelion (dandelion; Test 3, 72 HAT): 2
% Control Dandelion (dandelion; Test 4, 24 HAT): 11.1%
Control (1-9) Dandelion (dandelion; Test 4, 24 HAT): 1
% Control Dandelion (dandelion; Test 4, 72 HAT): 22.2%
Control (1-9) Dandelion (dandelion; Test 4, 72 HAT): 2
